# Laboratory results as given in patent US5859188A, “Method for discovering novel anthelmintic compounds” (priority 1997, dated 1999).
# Ends that are not written are not given here. Peptide text beside a SMILES is read from it. * marks the point of attachment. X1 = CC(C)C[C@@H](CN[C@@H](CCCNC(=N)N)C(=O)N[C@@H](Cc1ccccc1)C(N)=O)N*
# Columns and labels:
# [1] = target: receptor preparation (membrane fraction of Ascaris suum body wall muscle), AF2 binding sites; test: Displacement of radioactive AF2 ([125I]AF2) in a receptor binding assay
# Procedure: Adult female Ascaris suum, swine intestinal parasites, are collected in an abattoir after their removal from the intestine using pressurized water. Healthy specimens over 25 cm are selected, rinsed and placed in Ascaris Ringer's Solution (ARS: 4 mM NaCl, 5.9 mM CaCl2, 4.9 mM MgCl2, 5 mM Tris (C4 H11 NO3), 125 mM NaC2 H3 O2, 24.5 mM KCl, pH=7.4) at 37° C. Specimens are placed in a thermos filled with 37C Ascaris Ringer's solution and immediately air shipped to our laboratory. Upon arrival they are placed in fresh ARS (changed daily) and maintained at 37° C. for up to 3-4 days prior to use.
# Ascaris suum body wall tissue (muscle) is dissected out by pinning each specimen in a dissection tray, opening the worm along its entire length at the lateral line with a scalpel, removing the intestine and ovaries and then scraping the muscle from the cuticle. One worm yields approximately 1.0 g tissue. Tissue collected is flash frozen in liquid nitrogen and stored at -80° C. until needed.
# Membrane suspension for the binding assay is prepared as follows. […]
# Each replicate is one well of a standard 96-well plate and has a volume of 200 μl containing 15 ug protein (preparation described above). […] The plate is shaken on a rotary shaker for 2 hours and then counted on a Top Count® scintillation counter. […]
# A. suum muscle strips = conditions: cited from earlier work; for Threshold Concentration (ND class): highest concentration 10 μM; for Threshold Concentration: lowest tested concentration that detectably altered tension and/or contractile activity in at least half the strips
# [2] = test system: innervated Ascaris suum muscle preparation; test: Potency evaluation bioassay: muscle tension and contractile frequency of innervated Ascaris suum muscle preparation; conditions: for Tension: 1 nM peptide, mean
# Procedure: AF2 and iodinated AF2 were evaluated in a bioassay using an innervated Ascaris suum muscle preparation and potency was estimated by measuring the physiological effects of the peptides on A. suum muscle tension and contractile frequency.
# An adult female was bisected transversely just anterior to the oviduct. A 2 cm segment was obtained anterior from the initial cut and that section was placed immediately under 37° C. medium in a dissection chamber. Two muscle strips were then prepared from each segment. Strips were prepared by cutting the segment longitudinally along one lateral line, removing the gut and then severing the opposite lateral line. Steel wires, 4 cm long, 0.25 mm diameter, with terminal sharpened hooks, were inserted through the muscle strip approximately 3 mm and centered from each end. These hooks were used to suspend the muscle strip between an isometric force transducer and a stationary holdfast in a 37° C. water jacketed incubation chamber filled with suppressive Ascaris Ringer's Solution constantly bubbled with N2. The transducer was connected to a Gould chart recorder via a Gould Universal amplifier.
# The muscle tension on each preparation was "normalized" to zero five minutes before the addition of a test compound or vehicle. Compounds or vehicles were introduced from stock solutions and assayed at a final concentration of 1 nM in replicate (n=6). […] Inhibition is manifested as a drop in baseline tension (compared to control), while excitation is defined as a marked rise in baseline tension, often superimposed with transient muscle contractions (spiking). In order to estimate the net change in muscle tension of these preparations, the midpoint of the spike was estimated visually. Muscle tension data were analyzed by analysis of variance.
# Ascaris suum tissues = conditions: tritium on leucine moiety; cited from earlier work
Compound,Threshold Concentration (ND class) (A. suum muscle strips),Threshold Concentration (A. suum muscle strips) [µM],further results
"CC(C)C[C@@H](CN[C@@H](CCCNC(=N)N)C(=O)N[C@@H](Cc1ccccc1)C(N)=O)NC(=O)[C@H](Cc1ccc(O)cc1)NC(=O)[C@H](CCC(=O)O)NC(=O)[C@H](Cc1c[nH]cn1)NC(=O)[C@@H](N)CCCCN [KHEYL*RFamide (reduced bond), KHEYL*RFamide] (H-KHEY-X1)",,,IC50 ([1]; displacement of radioactive AF2): 0.02 µM
ANEFIRF-NH2,"ND (""ND"" means no detectable effect at 10 μM)",,
FIRFamide,"ND (""ND"" means no detectable effect at 10 μM)",,
KAEFIRF-NH2,"ND (""ND"" means no detectable effect at 10 μM)",,
KNAFIRF-NH2,,0.1,
KNEAIRF-NH2,,3.2,
KNEFARF-NH2,,10,
KNEFIAF-NH2,,10,
KNEFIRA-NH2,"ND (""ND"" means no detectable effect at 10 μM)",,
KNEYIRF-NH2,,3.2,
Lys-His-Glu-Tyr^--I -Leu-Arg-Phe-amide [Iodo AF2],,,"specific binding ([1]; radioligand in current embodiment of binding assay): > 80%; type of response of muscle tension ([2]; 1 nM): biphasic responses (short term inhibition followed by long term excitation); Tension ([2]; 5 min after peptide addition): -430 mg; Tension ([2]; 15 min after peptide addition): -403 mg; Tension ([2]; 30 min after peptide addition): -237 mg; Tension ([2]; 60 min after peptide addition): -437 mg; Spike amplitude ([2]; 1 nM, FIG. 1): significant increase"
NEFIRF-NH2,"ND (""ND"" means no detectable effect at 10 μM)",,
[^3 H]PF1: PF1 (Ser-Asp-Pro-Asn-Phe-Leu-Arg-Phe-NH2 ; SDPNFLRFamide) radiolabelled by exchanging a tritium atom for a hydrogen on the leucine moiety (SDPNFLRF-NH2; also: tritium label on Leu6),,,specific binding (Ascaris suum tissues): 40%
